Assay results as given in EP1481986A1, “Antibiotic 97518, pharmaceutically acceptable salts and compositions, and use thereof” (priority 2003, dated 2004).
In brackets after ≈: the same amount, converted by molar mass.

Legend:
[1] = system: 1652 Enterococcus faecium cl.isol. Van A; test: Microbroth dilution MIC (NCCLS M7-A5); format: cell-based; design: unit not given here; conditions: CAMHB, 10^4 CFU/ml, 35°C, 18-24 hours
Description: (§1) Antimicrobial activity of antibiotic 97518 was determined by using microbroth dilution method with standard U-bottom 96-well plates according to The National Committee for Clinical Laboratory Standards (Methods for Dilution Antimicrobial Susceptibility Tests for Bacteria that Grow Aerobically - Fifth Edition; Approved Standard. NCCLS document M7-A5 Vol.20 No. 2). The strains used were clinical isolates or strains from American Type Culture Collection (ATCC). Powder of antibiotic 97518 was dissolved in DMSO; this solution was further diluted with distilled water. The media used were cation-adjusted Mueller Hinton broth (CAMHB) for Staphylococcus aureus, Moraxella catarrhalis, Enterococci; Todd Hewitt broth (THB) for Streptococcus pyogenes, Streptococcus pneumoniae. Inocula were 10^4 CFU/ml. All strains were incubated at 35°C in air. Incubation time was 18-24 hours. […]

[2] = in vivo
[3] = system: 997 Neisseria gonorrhoeae clin.is.; test: Microbroth dilution MIC (NCCLS M7-A5); format: cell-based; conditions: 10^4 CFU/ml, 35°C, 18-24 hours
Description: as §1

[4] = system: Staphylococcus aureus strain ATCC6538P (L100); test: Macromolecular synthesis (incorporation of labelled precursors of DNA, RNA, protein and cell wall); format: cell-based; conditions: 20 min at 37°C
Description: Staphylococcus aureus strain ATCC6538P (L100) was grown overnight at 37 °C in a rotary bath in Iso-Sensitest Broth (Oxoid Ltd., Basingstoke, Hampshire, England). The culture was diluted up to an OD540 = 0.03 in a 1:1 (v/v) mixture of Iso-Sensitest broth : Davis Mingioli Broth (Difco Labs, Detroit, USA) added with 1g/l of KH2PO4, and was incubated at 37°C. To determine the antibiotic dose/response effects on RNA, DNA, protein and cell wall biosyntheses, the culture was divided in four parts when the optical density reached 0.4. Individual precursors of DNA ([…] ^3H-thymidine + 0.1g/l unlabelled adenosine), RNA (5 mCi/l ^3H-uracil), protein (10 mCi/l ^3H-leucine), and cell wall (1 mCi/l ^3H-N-acetylglucosamine + 3.5 mg/l unlabelled N-acetylglucosamine) biosyntheses were then added, resptectively, to each one of the four aliquots and, immediately after the addition, 100 µl of the resulting culture was dispensed in wells of microtiter plate (96 wells format), containing 10 µl of solutions of antibiotic 97518. After 20 min of incubation at 37°C, 0.1 ml ice-cold 20% (w/v) trichloroacetic acid was added to stop the incorporation. After 30 minutes at 4°, the samples were filtered on Filtermat A (Wallac) using an 96 well Wallac Cell Harvester. The Radioactivity not incorporated was washed away sequentially with water and ethanol. The radioactivity of the biopolymers was counted on the filters, using a Beta Plate System (Wallac).

[5] = system: Streptococcus pyogenes C 203; test: Mouse septicemia protection test (ip infection, survival to day 7); format: in vivo, Female ICR mice; conditions: mice infected ip with Streptococcus pyogenes C 203, Spearman-Kärber method
Description: Female ICR mice (Harlan, Italy) weighing 14-16 g were infected intraperitoneally (ip) with 6.5 x 10^2 cells of Streptococcus pyogenes C 203 in 0.5 mL of saline supplemented with 1% peptone. Antibiotic 97518 was administered intravenously (iv) or subcutaneously (sc) within 10-15 min after infection. The 50% effective doses (ED50) were calculated by the Spearman-Kärber method (D.J. Finney. The Spearman-Kärber method. In: Statistical Methods in Biological Assay. (1952) pp. 524-530, Charles Griffin &Co., Ltd., London) from the percentage of animals surviving to day 7 at each dose.

| Compound | MIC [1] | not toxic up to (dose) [2] | MIC [3] [mg/mL] | other macromolecular syntheses (DNA, RNA, protein) ([4]; at 2.5 µg/ml (same concentrations)) | cell wall synthesis (3H-N-acetylglucosamine incorporation) ([4]; at 2.5 µg/ml) | ED50 ([5]; administered intravenously (iv) within 10-15 min after infection) [mg/kg] | ED50 ([5]; administered subcutaneously (sc) within 10-15 min after infection) [mg/kg] | the four macromolecular syntheses (DNA, RNA, protein, cell wall) ([4]; control experiments) |
| --- | --- | --- | --- | --- | --- | --- | --- | --- |
| C=C1NC(=O)[C@H](C(C)C)NC(=O)[C@H](NC(=O)/C(=C/C)NC(=O)[C@@H](N)[C@@H](C)CC)CSC[C@@H](C(=O)N[C@H]2C(=O)N3CCC[C@H]3C(=O)NCC(=O)N[C@H](C(=O)N[C@H](C(=O)N[C@@H]3CSC[C@@H]4NC(=O)CNC(=O)[C@@H](CSC[C@@H]5NC(=O)[C@H](Cc6c[nH]cn6)NC(=O)[C@@H](CSC[C@@H](C(=O)O)NC5=O)NC4=O)NC(=O)CNC(=O)CNC(=O)CNC(=O)[C@H](CCC(=O)O)NC3=O)[C@@H](C)O)CS[C@H]2C)NC(=O)[C@H](Cc2c[nH]c3ccccc23)NC1=O [Antibiotic 97518] | 64 | up to 100 mg/Kg | 64 (≈ 29.2 mM) | only partially inhibited | blocked cell wall synthesis completely | 3.75 | 3.75 | – |
| nisin [reference compound] | – | – | – | – | – | – | – | inhibited all the four macromolecular syntheses at the same concentration |
